Converted amounts (≈) assume the structure as drawn. Marks after values point to notes of the source that are not given here.
Legend:
L1210 Cells = assay: Cytotoxicity against L1210 cells; format: cell-based; details: Mus musculus, read-out: ID50 (the source's name)
Mouse Leukemia P3888 = assay: Animal tumor screening, mouse leukemia P388; format: in vivo; design: key: -X= Borderline activity shown.; X= Activity shown. The initial endpoint is less stringent and is indicative of statistical significance.; XX= Outstanding activity shown and a proportion of "cures" produced. The stringent endpoint is indicative of sufficient antitumor selectivity to warrant consideration for development toward clinical trial.; No= No activity shown
Mouse Leukemia L1210 = assay: Animal tumor screening, response of L1210 leukemia in mice; format: in vivo; design: key to Activiity: -X= Borderline activity shown.; X= Activity shown. The initial endpoint is less stringent and is indicative of statistical significance.; XX= Outstanding activity shown and a proportion of "cures" produced. The stringent endpoint is indicative of sufficient antitumor selectivity to warrant consideration for development toward clinical trial.; No= No activity shown; details: for T/C(%) / "Cures": Daily x 9
Mouse Colon 38 = assay: Animal tumor screening, mouse colon 38; format: in vivo; design: key: -X= Borderline activity shown.; X= Activity shown. The initial endpoint is less stringent and is indicative of statistical significance.; XX= Outstanding activity shown and a proportion of "cures" produced. The stringent endpoint is indicative of sufficient antitumor selectivity to warrant consideration for development toward clinical trial.; No= No activity shown
Mouse Melanoma B16 = assay: Animal tumor screening, mouse melanoma B16; format: in vivo; design: key: -X= Borderline activity shown.; X= Activity shown. The initial endpoint is less stringent and is indicative of statistical significance.; XX= Outstanding activity shown and a proportion of "cures" produced. The stringent endpoint is indicative of sufficient antitumor selectivity to warrant consideration for development toward clinical trial.; No= No activity shown
Mouse Mammary CD8F1 = assay: Animal tumor screening, mouse mammary CD8F1; format: in vivo; design: key: -X= Borderline activity shown.; X= Activity shown. The initial endpoint is less stringent and is indicative of statistical significance.; XX= Outstanding activity shown and a proportion of "cures" produced. The stringent endpoint is indicative of sufficient antitumor selectivity to warrant consideration for development toward clinical trial.; No= No activity shown; details: treatment started 34 days after tumor implant (advanced-stage tumor)
Mluse Lewis Lung = assay: Animal tumor screening, mouse Lewis lung; format: in vivo; design: key: -X= Borderline activity shown.; X= Activity shown. The initial endpoint is less stringent and is indicative of statistical significance.; XX= Outstanding activity shown and a proportion of "cures" produced. The stringent endpoint is indicative of sufficient antitumor selectivity to warrant consideration for development toward clinical trial.; No= No activity shown
Human Mammary Xenograft = assay: Animal tumor screening, human mammary xenograft; format: in vivo; design: key: -X= Borderline activity shown.; X= Activity shown. The initial endpoint is less stringent and is indicative of statistical significance.; XX= Outstanding activity shown and a proportion of "cures" produced. The stringent endpoint is indicative of sufficient antitumor selectivity to warrant consideration for development toward clinical trial.; No= No activity shown
Human Lung Xenograft = assay: Animal tumor screening, human lung xenograft; format: in vivo; design: key: -X= Borderline activity shown.; X= Activity shown. The initial endpoint is less stringent and is indicative of statistical significance.; XX= Outstanding activity shown and a proportion of "cures" produced. The stringent endpoint is indicative of sufficient antitumor selectivity to warrant consideration for development toward clinical trial.; No= No activity shown

## CC(=O)OCC=CC=CC=CC(CC(OP(=O)(O)O)C(C)(O)C=CC1CC=CC(=O)O1)OC(C)=O.[Na] (stereo not shown) [CL 1565-A Diacetate, Sodium Salt, 6-[6,13-Bis(acetyloxy)-3-hydroxy-3-methyl-4-(phosphonooxy)-1,7,9,11-tridecatetraenyl]-5,6-dihydro-2H-pyran-2-one, sodium salt]
L1210 Cells
  IC50: ~6 µg/mL

## CC(O)(C=CC1CC=CC(=O)O1)C(O)CC(O)C=CC=CC=CCO (stereo not shown) [CL 1565-A alcohol, 5,6-Dihydro-6-(3,4,6,13-tetrahydroxy-3-methyl-l,7,9, 11-tridecatetraenyl)-2H-pyran-2-one]
L1210 Cells
  IC50: 2.5 µg/mL (≈ 7.13 µM)

## CC(O)(C=CC1CC=CC(=O)O1)C(CC(O)C=CC=CC=CCO)OP(=O)(O)O (stereo not shown) [CL 1565-A, 5,6-dihydro-6-(3,6,13-trihydroxy-3-methyl-4-(phosphonooxy)-1,7,9,11-tridecatetraenyl)-2H-pyran-2-one]
Mouse Leukemia P3888
  Activiity: X
Mouse Leukemia L1210; Mouse Leukemia L1210
  Activiity: XX (curative)
Mouse Leukemia L1210; Test 1, 6.25 mg/kg/dose
  T/C(%): 207%
Mouse Leukemia L1210; Test 1, 6.25 mg/kg/dose, 30-day survivors are considered cures
  "Cures": 0/6^e
Mouse Leukemia L1210; Test 2, 3.12 mg/kg/dose
  T/C(%): 191%
Mouse Leukemia L1210; Test 2, 3.12 mg/kg/dose, survivors at completion of observation period
  "Cures": 0/6
Mouse Leukemia L1210; Test 2, 6.25 mg/kg/dose
  T/C(%): 194%
Mouse Leukemia L1210; Test 2, 6.25 mg/kg/dose, survivors at completion of observation period
  "Cures": 1/6
Mouse Leukemia L1210; Test 2, 12.50 mg/kg/dose
  T/C(%): 337%
Mouse Leukemia L1210; Test 2, 12.50 mg/kg/dose, survivors at completion of observation period
  "Cures": 3/6
Mouse Leukemia L1210; Test 3, 1.56 mg/kg/dose
  T/C(%): 150%
Mouse Leukemia L1210; Test 3, 1.56 mg/kg/dose, survivors at completion of observation period
  "Cures": 0/6
Mouse Leukemia L1210; Test 3, 3.12 mg/kg/dose
  T/C(%): 195%
Mouse Leukemia L1210; Test 3, 3.12 mg/kg/dose, survivors at completion of observation period
  "Cures": 0/6
Mouse Leukemia L1210; Test 3, 6.25 mg/kg/dose
  T/C(%): 216%
Mouse Leukemia L1210; Test 3, 6.25 mg/kg/dose, survivors at completion of observation period
  "Cures": 0/6
Mouse Leukemia L1210; Test 3, 12.50 mg/kg/dose
  T/C(%): 246%
Mouse Leukemia L1210; Test 3, 12.50 mg/kg/dose, 45-day observation period
  "Cures": 0/6^f
Mouse Leukemia L1210; Test 4, 3.12 mg/kg/dose
  T/C(%): 194%
Mouse Leukemia L1210; Test 4, 3.12 mg/kg/dose, survivors at completion of observation period
  "Cures": 0/6
Mouse Leukemia L1210; Test 4, 6.25 mg/kg/dose
  T/C(%): 236%
Mouse Leukemia L1210; Test 4, 6.25 mg/kg/dose, survivors at completion of observation period
  "Cures": 1/6
Mouse Leukemia L1210; Test 4, 12.50 mg/kg/dose
  T/C(%): 268%
Mouse Leukemia L1210; Test 4, 12.50 mg/kg/dose, survivors at completion of observation period
  "Cures": 0/6^g
Mouse Leukemia L1210; result in words
  curative effect in the L1210 tumor mouse model: curative
  survival period of mice inoculated with mouse leukemia L1210: significantly prolongs the survival period
Mouse Colon 38
  Activiity: X
Mouse Melanoma B16
  Activiity: No
Mouse Mammary CD8F1
  Activiity: Xa
Mluse Lewis Lung
  Activiity: No
Human Mammary Xenograft
  Activiity: -X
Human Lung Xenograft
  Activiity: No

Reference: patent EP0128651A2, “Pyranones and related compounds and methods for their production and use” (WARNER-LAMBERT COMPANY, priority 1983, dated 1984)
